Test results as given in patent US20140045908A1, “HSP90 INHIBITORY COMPOUNDS IN TREATING JAK/STAT SIGNALING-MEDIATED CANCERS” (SYNTA PHARMACEUTICALS CORP., priority 2011, published 2014).
pIC50: −log10 of the molar value.

How the values were obtained:
Type in all cases: cell-based, human
[1] = system: JAK2/STAT3 signaling in HCC827 cells; experiment: Western blot of constitutive and IL-6 induced STAT3 activity in HCC827 cells
Method: HCC827 lung cancer cells were treated with increasing concentrations of ganetespib or P6 for 24 h followed by a 15 min stimulation with or without 50 ng/ml human recombinant IL-6. The levels of JAK2, total and phospho-STAT3, and PIM2 were analyzed by western blot. GAPDH is included as a loading control.
(§1) Cells were disrupted in lysis buffer (CST) and solubilized in 2% SDS. Xenograft tumors (average volume of 100-200 mm3) were excised, cut in half, and flash frozen in liquid nitrogen. Each tumor fragment was lysed in 0.5 mL of lysis buffer using a FastPrep-24 homogenizer and Lysing Matrix A (MP Biomedicals, Solon, Ohio, USA) and lysates clarified by centrifugation. Equal amounts of proteins were resolved by SDS-PAGE and immunoblotted with indicated antibodies. The antigen-antibody complex was visualized and quantitated using an Odyssey system (LI-COR, Lincoln, Nebr., USA).

HEL92.1.7 cells [2] = experiment: Flow cytometry cell cycle analysis
Method: HEL92.1.7 cells were plated at 0.5×10^6 cells/mL and treated as indicated. Cells were harvested and stained with propidium iodide using the BD Cycle TEST PLUS Reagent Kit (BD Biosciences, San Jose, Calif., USA) according to the manufacturer's instructions. Twenty thousand cells were analyzed for their DNA content using a FACS Caliber cytometer (BD Biosciences).

[3] = system: JAK/STAT target and cell cycle gene expression in HEL92.1.7 cells; experiment: RNA expression profiling (RT-PCR, Affymetrix) in HEL92.1.7 cells; conditions: 4 hour P6 (1000 nM), 24 hour ganetespib (250 nM)
Method: HEL92.1.7 cells were treated with DMSO, P6 (100 or 1000 nM) or ganetespib (25 or 250 nM) for 4 h or 24 h, and total RNA extracted using Trizol (Invitrogen). RNA was purified with the RNeasy kit (Qiagen, Hilden, Germany) and converted to cDNA via an iScript kit (BioRad, Hercules, Calif., USA). Oligonucleotide primers were purchased from SABiosciences (Frederick, Md., USA). PCR was done with iQ SYBR Green Supermix (Bio-Rad), and levels of the tested genes were normalized to HPRT expression using the comparative Ct method.
Biotinylated aRNA was generated by in vitro transcription using Affymetrix GeneChip Expression IVT labeling kit (Affymetrix, Santa Clara, Calif., USA). Fifteen micrograms of labeled aRNA was fragmented and hybridized to Affymetrix GeneChip Human Genome U133 Plus 2 arrays and scanned using a GeneChip Scanner (Affymetrix). Array data were analyzed with the Affymetrix Expression Console Software utilizing the MASS algorithm. In order to generate a threshold for identifying probe sets that have large differences between 1000 nM P6 (4 h) and 250 nM ganetespib (24 h) arrays and their controls in the absence of treatment replicates, data from four control arrays (DMSO only; two at 4 h, and two at 24 h) were used to create an expression level dependent fold-difference envelope that reflects the increasing measurement variability as expression level decreases. This envelope, used in lieu of a fixed fold-difference criteria, was formed by identifying the xth percentile expression-level difference (where x was large, typically 99.9%) at each mean expression level bin. To achieve this, data were used from the six possible comparisons from the four DMSO-only arrays. The resulting, smoothed threshold fold-difference envelope was then applied to the two compound-treated/control array pairs to identify those probe-sets that have large expression level differences between treatment and control. For hierarchical analysis, genes with greater than two fold changes in expression with 250 nM ganetespib were clustered using established algorithms in Cluster (49) and a subset visualized by TreeView.

[4] = system: Cdk1, phospho-Chk2, cyclins in HEL92.1.7 cells; experiment: Western blot of cell cycle proteins in HEL92.1.7 cells; conditions: ganetespib 250 nM or P6 1000 nM, 24-48 h
Method: Cells were harvested at the indicated time points and the levels of total and phospho-Cdk1, phospho-Chk2 and GAPDH analyzed by western blot.
FIG. 12 illustrates the effects of ganetespib on JAK/STAT and cell cycle protein expression. HEL92.1.7 cells were treated with 100 nM ganetespib and subject to western blot to determine the levels of Cdk1, cyclin B1, cyclin A1, JAK2, total and phospho-STAT3, and GAPDH at hourly intervals over an 11 h time course.
as §1

HEL92.1.7 cells [5] = experiment: Cell viability assay (AlamarBlue, 72 h)
Method: All cell lines were obtained from the ATCC (Rockville, Md., USA), with the exception of SET-2 cells which were purchased from the German Collection of Microorganisms and Cell Cultures (DSMZ, Germany). Cells were maintained and cultured according to standard techniques at 37° C. in 5% (v/v) CO2 using culture medium recommended by the supplier.
Cells were grown in 96-well plates based on optimal growth rates determined empirically for each line. Twenty-four hours after plating, cells were dosed with the indicated compound or DMSO (0.3%) for 72 h. AlamarBlue (Invitrogen, Carlsbad, Calif., USA) was added (10% v/v) to the cells, and the plates were incubated for 3 h and subjected to fluorescence detection (Ex=545 nm, Em=600 nm) in a SpectraMax Plus 384 microplate reader (Molecular Devices, Sunnyvale, Calif., USA). Data are normalized to percent of control, with IC50 values based on a four-parameter logistic dose response curve (model 205) using XLfit version 5.1 from IDBS (Guildford, U.K.).

[6] = system: JAK2 dependent signaling in HEL92.1.7 cells; experiment: Western blot of JAK/STAT signaling in HEL92.1.7 cells; conditions: 250 nM ganetespib or 1000 nM P6
Method: FIG. 2 compares the more durable ganetespib durable inhibition of JAK/STAT signaling to P6. HEL92.1.7 cells were cultured in the presence of 250 nM Ganetespib or 1000 nM P6 and harvested at the indicated time points. The levels of JAK2, phosphorylated and total STAT3 and STAT5, phospho-AKT, phospho-ERK and GAPDH were determined by western blot.
as §1

[7] = system: JAK/STAT signaling in SET-2 cells; experiment: Western blot of JAK/STAT signaling in SET-2 cells; conditions: 24 h
Method: SET-2 cells were dosed with the indicated concentrations of ganetespib or 17-AAG for 24 h and analyzed to determine JAK/STAT protein and target levels using the antibodies indicated.
as §1

[8] = 24 h, absence of external ligand

Row | SMILES | JAK2 expression [1, 8] | constitutive STAT3 activity [1, 8] | JAK/STAT signaling stimulated by exogenous IL-6 ([1]; 24 h then 15 min 50 ng/ml IL-6) | cell cycle distribution (HEL92.1.7 cells [2]) | expression of JAK/STAT target genes (SOCS and PIM family members) [3] | Cdk1 protein expression [4] | fold less potency than ganetespib, loss of cellular viability (HEL92.1.7 cells [5]) [fold] | pIC50 (HEL92.1.7 cells [5]; 72 h, Alamar blue, read-out: IC50, loss of cellular viability) | JAK2 dependent signaling (phospho-STAT3, phospho-STAT5, ERK signaling) [6] | fold less potent than ganetespib, effects on JAK/STAT signaling [7] [fold]
1 | CC(C)(C)c1nc2c3cc[nH]c(=O)c3c3cc(F)ccc3c2[nH]1 [P6, reference compound] | did not influence total JAK2 protein levels | downregulated constitutive STAT3 activity | blocked JAK/STAT signaling stimulation | accumulation in G1 phase only, without the loss of S phase or G2/M arrest | downregulated | no effect on Cdk1 expression | 30 | 6.21 | blocked JAK2 dependent signaling | –
2 | C=CCNC1=C2C[C@@H](C)C[C@H](OC)[C@H](O)[C@@H](C)/C=C(\C)[C@H](OC(N)=O)[C@@H](OC)/C=C\C=C(/C)C(=O)NC(=CC1=O)C2=O [17-AAG, reference compound] | – | – | – | – | – | – | – | – | – | 200
